Reference: patent US20260355199A1, “COMPOSITIONS AND METHODS FOR TREATING OR PREVENTING NONALCOHOLIC STEATOHEPATITIS (NASH), ANOREXIA, DEPRESSION, ENDOMETRIOSIS, AND OTHER DISEASES OR DISORDERS” (priority 2022, published 2026)
Entries after “also recorded” stand apart in the source; their conditions may differ.

Experiments:
[1] = system: TET3; assay: TET3 protein in human MDMs; assay type: cell-based; conditions: 24 h
Procedure: (§1) For siRNA transfection in a 24-well plate scale of MDMs, NT siRNA or TET3 siRNA (4392420/s47239, Ambion) was mixed with 25 μL of OPTI-MEM by gentle pipetting. In parallel, 1.5 μL of Lipofectamine RNAiMAX was mixed with 25 μL of OPTI-MEM by gentle pipetting. Following 5 min of incubation at RT, the resulting 50 μl of transfection solution was added to each well of cells containing 450 μL of growth media.
(§2) Bobcat339 Treatment of Cultured Cells Bobcat339 powder (Sigma-Aldrich, SML2611) was freshly dissolved in DMSO at a concentration of 5 mM and filtered through a 0.22 micron. […]
(§3) For cultured MDMs, cells were primed with CM-Endo or TGF-β1 (PeproTech, 100-21) for 36-48 h (to increase TET3 expression) before Bobcat339 treatment.
Cells were homogenized in situ using a pipette tip in 2×SDS-sample buffer with 10% β-mercaptoethanol at RT followed by heating at 100 °C for 5 min with occasional vortexing. The samples were loaded onto a 4-15% gradient SDS gel (Bio-rad, 456-8086) (10 μL/well) and transferred to nitrocellulose membranes, followed by Western blot analysis. […]

[2] = system: TET2; assay: TET2 protein in human MDMs; assay type: cell-based; conditions: 24 h
Procedure: (§4) Bobcat339 Treatment of Cultured Cells Bobcat339 powder (Sigma-Aldrich, SML2611) was freshly dissolved in DMSO at a concentration of 5 mM and filtered through a 0.22 micron. Cells grown at a density of 80-90% were incubated in growth media with vehicle (DMSO) or Bobcat339 at a final concentration of 10 μM for 24 h, followed by RNA and protein extraction.
as §3
Cells were homogenized in situ using a pipette tip in 2×SDS-sample buffer with 10% β-mercaptoethanol at RT followed by heating at 100 °C for 5 min with occasional vortexing. The samples were loaded onto a 4-15% gradient SDS gel (Bio-rad, 456-8086) (10 μL/well) and transferred to nitrocellulose membranes, followed by Western blot analysis. The antibodies used were anti-TET3 (diluted at 1:1000, GeneTex, GTX121453 for human; diluted at 1:1000, Active Motif, 61395 for mouse), anti-TET2 (diluted at 1:1000, Proteintech, 21207-1-AP for human/mouse), anti-TGF-β1 (diluted at 1:1000, Abcam, ab215715 for human), anti-Lin28A (diluted at 1:1000, Cell Signaling, 3978S), and HRP-conjugated anti-GAPDH (dilution 1:5000; Proteintech, HRP-60004). The secondary antibody was HRP-linked Anti-rabbit IgG (dilution 1:10,000; Rockland, 611-1322).

[3] = system: TET3 and TET2 mRNA; assay: TET3 and TET2 mRNA in human MDMs; assay type: cell-based; parameters: TET3 and TET2 mRNA levels: dose or concentration left out as unconfirmed; conditions: 24 h
Procedure: as §1, §2, §3
(§5) Total RNAs were extracted from cells using PureLink RNA Mini Kit. 0.5-1 μg total RNA was reverse transcribed to cDNA in a reaction volume of 20 μL using PrimeScript RT Reagent Kit. Real-time quantitative PCR was performed in a 15 μL reaction volume containing 0.5-1 μL of cDNA using SsoAdvanced Universal SYBR Green Supermix in a Bio-Rad iCycler. Gene expression levels were normalized against RPLP0.

[4] = system: Tet3 mRNA; assay: Tet3/Tet2 mRNA in RAW 264.7 cells; assay type: cell-based, mouse; conditions: RAW 264.7, 10 μM, 24 h
Procedure: For siRNA transfection in a 24-well plate scale of Raw 264.7 cells, 10 pmol of NT siRNA (AM4636, Ambion) or Tet3 siRNA (4390815/s101483, Ambion) was mixed with 100 μL of OPTI-MEM (Gibco, 31985-070) by gentle pipetting. In parallel, 3 μL of Lipofectamine RNAiMAX (Invitrogen, 13778-150) was mixed with 100 μL of OPTI-MEM by gentle pipetting. Following 5 min of incubation at RT, the two were combined and the resulting 200 μL of transfection solution was added to each well of cells. After 24 h of incubation at […] in a 5% humidified CO2 tissue culture incubator, 300 μL of growth media was added and incubation was continued until cell harvesting.
as §4, §5

[5] = Liver toxicity after three weeks of once-a-week Bobcat339; assay type: in vivo, mouse
Procedure: For corticosterone, blood samples were obtained via retroorbital bleeding between 19:00 and 20:00. For alanine transaminase, aspartate transaminase and bilirubin, blood samples were collected by cardiac puncture of terminally anesthetized animals. All blood samples were collected in EDTA tubes (Microtainer with K2EDTA, BD, 365974). The tubes were centrifuged at 2,000×g at 4 °C for 20 min, and plasma was collected and stored at −80 °C until use. Plasma corticosterone levels were measured using Corticosterone ELISA kit (Enzo, ADI-900-097) according to the manufacturer's instructions. Kits used to measure alanine transaminase (EALT-100) and aspartate transaminase (EASTR-100) were purchased from Bioassay Systems. The bilirubin assay kit (MAK126) was purchased from Sigma Aldrich.

[6] = system: MDMs; assay: TUNEL assay in human MDMs; assay type: cell-based; conditions: 10 μM, 48 h
Procedure: For TET3 expression restoration experiments, cells seeded in 24-well plates were infected with Ad-GFP or Ad-TET3 at 4000 gc/cell. Following 16 h of infection, vehicle or Bobcat339 were added at a final concentration of 10 μM. Protein and RNA were isolated 48 hours later and analyzed.
These were performed using the In Situ Cell Death Detection Kit (Sigma Aldrich, 12156792910). Briefly, cells were fixed with 4% paraformaldehyde in PBS for 1 h at RT and rinsed with PBS, followed by permeabilization with 0.1% Triton X-100 in 0.1% sodium citrate for 2 min on ice. TUNEL reaction mixture was added and incubation was carried out at 37 °C for 60 min. DAPI was added to counter-stain the cells for 1 min. The slides were coverslipped and scoped using a Keyence BZ-X700 fluorescence microscope.

[7] = system: Bcl2l11, Bid and Pmaip1; assay: Pro-apoptosis gene expression in mouse peritoneal macrophages; assay type: cell-based; conditions: TGF-b1 primed mouse peritoneal macrophages, 10 μM, 48 h
Procedure: For cultured mouse peritoneal macrophages, cells were primed with 30 ng/ml of TGF-β1 (R&D Systems, 7666-MB0-005) for 48 h (to increase TET3 expression) before Bobcat339 treatment. Bobcat339 (or DMSO) was added at a final concentration of 10 μM, followed by RNA and protein extraction at time points indicated in the figure legends.
as §5

Question: For `Nc1nc(=O)n(-c2cccc(-c3ccccc3)c2)cc1Cl` [Bobcat339, 4-Amino-1-[1,1′-biphenyl]-3-yl-5-chloro-2(1H)-pyrimidinone], which TET3 protein level ([1]; 10 μM) is on record?
Answer: a decrease in TET3 expression; also recorded: decreased the level of TET3 protein

Question: What about the “steady-state level of TET3 protein” value ([1]; 10 mM (so in the source)) of the same molecule?
Answer: a decrease in the steady-state level of TET3 protein

Question: What about the TET2 protein level ([2]; 10 μM) of the same molecule?
Answer: not affected; also recorded: not TET2

Question: What about the TET2 protein level ([2]; 10 mM (so in the source)) of the same molecule?
Answer: not significantly affected

Question: And the “TET3 and TET2 mRNA” value ([3]; 10 μM)?
Answer: did not alter the mRNA levels of TET3 and TET2; also recorded: no significant differences in their expression

Question: And the “TET3 and TET2 mRNA levels” value [3]?
Answer: did not alter the mRNA levels of TET3 and TET2

Question: And the “Tet3 mRNA” value [4]?
Answer: without altering its mRNA abundance; also recorded: no significant difference in expression between the groups

Question: And the tolerability ([5]; 3-weeks of once-a-week i.p. injection)?
Answer: well tolerated

Question: And the liver toxicity ([5]; three weeks of once-a-week i.p. Bobcat339)?
Answer: no evidence of liver toxicity; also recorded: no liver toxicity has been detected

Question: What about the “apoptosis (TUNEL)” value [6] of the same molecule?
Answer: increased apoptosis; also recorded: induced apoptosis; also recorded: a significant increase in pyroptotic cell death

Question: And the “apoptosis (TUNEL / Caspase-1)” value ([6]; with Ad-TET3)?
Answer: abolished when TET3 protein was restored to control levels; also recorded: not seen when TET3 expression level was restored

Question: And the “Bcl2l11, Bid and Pmaip1 expression” value [7]?
Answer: an upregulation of all three pro-apoptosis genes
